Experimental data as given in paper PMC6216040, “Repurposing of an old drug: In vitro and in vivo efficacies of buparvaquone against Echinococcus multilocularis” (International Journal for Parasitology: Drugs and Drug …, 2018).
Where two headings read alike, the source gives them in different places.

System: E. multilocularis metacestodes
Assay: PGI-assay: drug-induced damage on in vitro cultured metacestodes (Pathogen Box screening cascade and EC50)
Type: cell-based, Echinococcus multilocularis
Settings: for PGI release, % of the Tx-100 control, 5d / PGI release, % of the Tx-100 control, 12d / cytotoxicity at 10 µM: 10 µM, singlets; for cytotoxicity at 10 µM: Echinococcus multilocularis
[1] = 120 h, 5 days of incubation, read-out: PGI release, % of the Tx-100 control, 5d
[2] = 288 h, 12 days of incubation, read-out: PGI release, % of the Tx-100 control, 12d

| SMILES | PGI release, % of the Tx-100 control, 5d (5 days of incubation) [%] | PGI release, % of the Tx-100 control, 12d (12 days of incubation) [%] | further results |
| --- | --- | --- | --- |
| O=C(NCCc1c[nH]c2ccccc12)c1cc2ccccc2oc1=O [MMV676539] | 0.63 | 17.31 | – |
| COc1cccc(-n2nnnc2S(=O)(=O)Cc2ccccc2)c1 [MMV676388] | 12.00 | 14.67 | – |
| Cc1nn(C(=O)Nc2cccc(C(F)(F)F)c2)c(C)c1Sc1ncccn1 [MMV688552] | 0.35 | 1.89 | – |
| CCc1cc(=O)n(C)c(SC(C)C(=O)Nc2ccc(F)cc2)n1 (centres unmarked) [MMV688980] | -0.26 | 0.88 | – |
| O=C(c1n[nH]c2c1CCCC2)N1CCN(Cc2ccc3c(c2)OCO3)CC1 [MMV676389] | 1.07 | 3.62 | – |
| O=C([C@@H](c1ccc(Cl)cc1)c1cccnc1)N1CCN(c2ccc(C(F)(F)F)cc2)CC1 [MMV689244] | -0.13 | -0.53 | – |
| CO[C@@H]1CN(c2ccc(C#CC3(O)CN4CCC3CC4)c(Cc3ccccc3)n2)C[C@H]1O (some centres unmarked) [MMV688415] | 3.28 | -0.74 | – |
| c1cncc(NCc2ccc(-c3cc4ccncc4cc3OC3CCNCC3)s2)c1 [MMV023969] | -3.87 | -3.02 | – |
| OCCc1ccc(Nc2nccc(-c3nnc4ccccn34)n2)cc1 [MMV028694] | 1.98 | 1.79 | – |
| O=C(Cn1ccnc1[N+](=O)[O-])NCc1ccccc1 [MMV688773, Benznidazole, reference compound] | – | – | cytotoxicity at 10 µM [1]: -0.2%; cytotoxicity at 10 µM [2]: 1.37% |
| c1ccc(C[C@@H]2CN(c3nccc(Oc4ccc(-n5ccnc5)cc4)n3)CCN2)cc1 [MMV687749] | 5.87 | 6.61 | – |
| CCOC(=O)c1noc(N)c1-c1ccccc1 [MMV1236379] | 3.51 | 4.87 | – |
| CC1(C)Cc2c(c(N3CCOCC3)nc3snc(Br)c23)CO1 [MMV687794] | -0.77 | -1.36 | – |
| CCCS(=O)(=O)N1CCC(CO)(Cc2ccccc2C(F)(F)F)CC1 [MMV001059] | 1.56 | 1.44 | – |
| C[C@H]1COC2(CCN(c3nc(=O)c4cc(C(F)(F)F)cc([N+](=O)[O-])c4s3)CC2)O1 [MMV676603] | -4.72 | 4.80 | – |
| O=C(Nc1ccc(N2CCNCC2)cc1)c1ccn2ncc(-c3cccc(Cl)c3)c2n1 [MMV022478] | 20.71 | 24.08 | PGI release, % of Tx-100 control, average, 5d (confirmatory screening at 10 µM in triplicates, 5 days of incubation, values as % of Tx-100 control): 17.77%; PGI release, % of Tx-100 control, average, 12d (confirmatory screening at 10 µM in triplicates, 12 days of incubation, values as % of Tx-100 control): 19.68% |
| CN1CCN(c2nccc3[nH]c(-c4cccc(F)c4)cc23)CC1 [MMV393144] | -0.30 | 0.40 | – |
| O=C(CCC1CCCCC1)Nc1cccc(-c2nnc(-c3ccco3)o2)c1 [MMV676589] | -1.81 | 2.20 | – |
| Cc1nc2ccccn2c1C(=O)NCc1ccc(Cl)cc1 [MMV012074] | 0.39 | -0.51 | – |
| Cc1cc(C)nc(-n2nc(C)cc2Nc2ccccc2)n1 [MMV062221] | -5.83 | 1.28 | – |
| O=C(OCc1ccccc1)N1CCC(c2cc(-c3ccncc3)c(-c3ccc(F)cc3)[nH]2)CC1 [MMV688509] | 0.97 | 2.28 | – |
| O=C(NCCN1CCCC1)c1cc(NCCCCN2CCC(F)(F)CC2)nc2ccc(Cl)cc12 [MMV667494] | -0.60 | -1.11 | – |
| Cc1cc(C(=O)Nc2cnn(Cc3ccc(Cl)cc3Cl)c2)no1 [MMV009054] | -0.80 | -0.25 | – |
| COc1cc(-c2cc(-c3ccc(S(C)(=O)=O)cc3)cnc2N)ccc1O [MMV010576] | -0.22 | -2.40 | – |
| Cc1nnc(NC(=O)c2cn(-c3ccccc3)nc2-c2ccccc2C)o1 [MMV020320] | -1.15 | 2.11 | – |
| Oc1c(I)cc(I)c2cccnc12 [MMV002817, Diiodohydroxyquinoline, reference compound] | – | – | cytotoxicity at 10 µM [1]: -1.42%; cytotoxicity at 10 µM [2]: -0.41% |
| Nc1nc(N)c2c3c(sc2n1)CN(Cc1ccccc1)CC3 [MMV688345] | -0.50 | -0.61 | – |
